Where “and” joins values, the source holds several entries; their conditions need not be identical. Equal values may be shown once.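 Grown in 96-well plates, cells were treated for 48 hours with each compound at five concentrations. Insufficient inhibition: endpoint recorded as highest concentration tested. Abbreviation: GI50, concentration required for 50% inhibition of growth. At the TGI there is no net growth.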
Experiments:
Experiment in all cases: growth of human tumour cells (NCI), 48 h
[1] = tested on: T-47D breast
[2] = tested on: HOP-92 NSCLC
[3] = tested on: SNB-75 CNS
[4] = tested on: NCI-H522 lung
[5] = tested on: HL-60(TB) leukemia
[6] = tested on: SK-MEL-2 melanoma
[7] = tested on: NCI-H23 lung
[8] = tested on: UACC-62 melanoma
[9] = tested on: KM12 colon
[10] = tested on: OVCAR-8 ovarian
[11] = tested on: MDA-MB-231 breast
[12] = tested on: SF-295 CNS
[13] = tested on: MDA-MB-435
[14] = tested on: M14 melanoma
[15] = tested on: A498 renal
[16] = tested on: CCRF-CEM leukemia
[17] = tested on: SN12C renal
[18] = tested on: NCI-H460 lung
[19] = tested on: HS 578T breast
[20] = tested on: NCI/ADR-RES ovarian
[21] = tested on: HT29 colon
[22] = tested on: SK-OV-3 ovarian
[23] = tested on: IGROV1 ovarian
[24] = tested on: HOP-62 NSCLC
[25] = tested on: SR leukemia
[26] = tested on: DU-145 prostate
[27] = tested on: SK-MEL-5 melanoma
[28] = tested on: MOLT-4 leukemia
[29] = tested on: CAKI-1 renal
[30] = tested on: U251 CNS
[31] = tested on: PC-3 prostate
[32] = tested on: COLO 205 colon
[33] = tested on: SK-MEL-28 melanoma
[34] = tested on: MDA-N
[35] = tested on: HCT-116 colon
[36] = tested on: HCT-15 colon
[37] = tested on: RPMI-8226 leukemia
[38] = tested on: OVCAR-3 ovarian
[39] = tested on: MALME-3M melanoma
[40] = tested on: MCF7 breast
[41] = tested on: EKVX NSCLC
[42] = tested on: 786-0 renal
[43] = tested on: UO-31 renal
[44] = tested on: A549 NSCLC
[45] = tested on: OVCAR-5 ovarian
[46] = tested on: SW-620 colon
[47] = tested on: HCC-2998 colon
[48] = tested on: OVCAR-4 ovarian
[49] = tested on: SNB-19 CNS
[50] = tested on: TK-10 renal
[51] = tested on: RXF 393 renal
[52] = tested on: UACC-257 melanoma
[53] = tested on: ACHN renal
[54] = tested on: K-562 leukemia
[55] = tested on: LOX IMVI melanoma
[56] = tested on: SF-268 CNS
[57] = tested on: NCI-H226 lung
[58] = tested on: SF-539 CNS

## S=C(/C=C1\SC(=Nc2ccccc2)C(=Nc2ccccc2)N1c1ccccc1)Nc1ccccc1
[1]
  TGI: > 100 µM
[2]
  TGI: > 100 µM
[3]
  TGI: > 100 µM
[4]
  TGI: > 100 µM
[5]
  TGI: > 100 µM
[6]
  TGI: > 100 µM
[7]
  TGI: > 100 µM
[8]
  TGI: > 100 µM
[9]
  TGI: > 100 µM
[10]
  TGI: > 100 µM
[11]
  TGI: > 100 µM
[12]
  TGI: > 100 µM
[13]
  TGI: > 100 µM
[14]
  TGI: > 100 µM
[15]
  TGI: > 100 µM
[16]
  TGI: > 100 µM
[17]
  TGI: > 100 µM
[18]
  TGI: > 100 µM
[19]
  TGI: > 100 µM
[20]
  TGI: > 100 µM
[21]
  TGI: > 100 µM
[22]
  TGI: > 100 µM
[23]
  TGI: > 100 µM
[24]
  TGI: > 100 µM
[25]
  TGI: > 100 µM
[26]
  TGI: > 100 µM
[27]
  TGI: > 100 µM
[28]
  TGI: > 100 µM
[29]
  TGI: > 100 µM
[30]
  TGI: > 100 µM
[31]
  TGI: > 100 µM
[32]
  TGI: > 100 µM
[33]
  TGI: > 100 µM
[34]
  TGI: > 100 µM
[35]
  TGI: > 100 µM
[36]
  TGI: > 100 µM
[37]
  TGI: > 100 µM
[38]
  TGI: > 100 µM
[39]
  TGI: > 100 µM

## C[n+]1c(-c2ccccc2)cc2/c(=C\c3ccccc3)c3ccccc3n21
[2]
  TGI: 4.93 µM
[3]
  TGI: 2.05 µM
[4]
  TGI: 2.01 µM
[5]
  TGI: 0.302 µM
[6]
  TGI: 2.26 µM
[7]
  TGI: 7.2 µM
[8]
  TGI: 3.24 µM
[40]
  TGI: > 32.2 µM
[9]
  TGI: 2.18 µM
[10]
  TGI: 4.19 µM
[11]
  TGI: 3.55 µM
[12]
  TGI: 76 µM
[41]
  TGI: 9.64 µM
[13]
  TGI: 2.45 µM
[14]
  TGI: 4.19 µM
[15]
  TGI: 23.1 µM
[42]
  TGI: 2.77 µM
[17]
  TGI: 3.32 µM
[43]
  TGI: 7.81 µM
[44]
  TGI: > 36.3 µM
[19]
  TGI: 0.576 µM
[20]
  TGI: 71.1 µM
[21]
  TGI: 3.22 µM
[22]
  TGI: 17.4 µM
[23]
  TGI: 2.64 µM
[24]
  TGI: 6.9 µM
[45]
  TGI: 13.4 µM
[46]
  TGI: 3.47 µM
[25]
  TGI: > 21.4 µM
[47]
  TGI: 14.2 µM
[26]
  TGI: 10.6 µM
[28]
  TGI: 7.78 µM
[48]
  TGI: 17.2 µM
[49]
  TGI: 24 µM
[50]
  TGI: 14.2 µM
[51]
  TGI: 4.07 µM
[29]
  TGI: 11.4 µM
[30]
  TGI: 1.67 µM
[52]
  TGI: 3.98 µM
[31]
  TGI: 3.69 µM
[53]
  TGI: 11.8 µM
[32]
  TGI: 1.8 µM
[33]
  TGI: 2.73 µM
[34]
  TGI: 3.42 µM
[54]
  TGI: > 100 µM
[35]
  TGI: 4.91 µM
[36]
  TGI: 11.5 µM
[55]
  TGI: 2.88 µM
[37]
  TGI: > 100 µM
[38]
  TGI: 3.04 µM
[56]
  TGI: 2.92 µM
[57]
  TGI: 2.01 µM
[39]
  TGI: 2.93 µM

## c1ccc(-c2cc(-c3cccs3)c(-c3cccs3)s2)cc1
[1]
  TGI: 58.4 µM
[2]
  TGI: > 100 µM
[3]
  TGI: > 100 µM
[4]
  TGI: 64.8 µM
[5]
  TGI: 88.5 µM
[7]
  TGI: 60.2 µM
[8]
  TGI: > 100 µM
[40]
  TGI: 41 µM
[9]
  TGI: 32.9 µM
[10]
  TGI: > 100 µM
[11]
  TGI: > 100 µM
[12]
  TGI: > 100 µM
[41]
  TGI: > 100 µM
[13]
  TGI: 75.5 µM
[14]
  TGI: 54.5 µM
[15]
  TGI: > 100 µM
[42]
  TGI: > 100 µM
[16]
  TGI: 57.9 µM
[17]
  TGI: > 100 µM
[43]
  TGI: 72.3 µM
[18]
  TGI: > 100 µM
[19]
  TGI: > 100 µM
[20]
  TGI: > 100 µM
[21]
  TGI: > 100 µM
[22]
  TGI: > 100 µM
[23]
  TGI: > 100 µM
[24]
  TGI: > 100 µM
[45]
  TGI: > 100 µM
[46]
  TGI: > 100 µM
[25]
  TGI: 52.3 µM
[47]
  TGI: 67.8 µM
[26]
  TGI: > 100 µM
[27]
  TGI: > 100 µM
[28]
  TGI: 63.1 µM
[48]
  TGI: 62.6 µM
[50]
  TGI: > 100 µM
[51]
  TGI: 47.3 µM
[29]
  TGI: > 100 µM
[30]
  TGI: > 100 µM
[52]
  TGI: > 100 µM
[53]
  TGI: > 100 µM
[32]
  TGI: > 100 µM
[58]
  TGI: > 100 µM
[34]
  TGI: > 100 µM
[35]
  TGI: > 100 µM
[36]
  TGI: 70.1 µM
[37]
  TGI: 79 µM
[38]
  TGI: > 100 µM
[56]
  TGI: > 100 µM
[57]
  TGI: > 100 µM

## O=[N+]([O-])c1cccnc1NCC1(CO)CCCC1
[2]
  TGI: 54.1 µM
[3]
  TGI: 34.9 µM
[4]
  TGI: 45.9 µM
[5]
  TGI: 50.3 µM
[7]
  TGI: > 100 µM
[40]
  TGI: > 100 µM
[10]
  TGI: 50.7 µM
[12]
  TGI: 56.2 µM
[41]
  TGI: 76.9 µM
[13]
  TGI: 44.1 µM
[15]
  TGI: > 100 µM
[42]
  TGI: 80.1 µM
[16]
  TGI: > 100 µM
[17]
  TGI: 53 µM
[18]
  TGI: 47.6 µM
[44]
  TGI: > 100 µM
[19]
  TGI: 54 µM
[20]
  TGI: 49 µM
[21]
  TGI: 34.8 µM
[23]
  TGI: 38.7 µM
[24]
  TGI: > 100 µM
[45]
  TGI: 87.1 µM
[46]
  TGI: 54.4 µM
[25]
  TGI: 64.2 µM
[47]
  TGI: 32.8 µM
[26]
  TGI: > 100 µM
[27]
  TGI: 30.9 µM
[28]
  TGI: 40.5 µM
[48]
  TGI: > 100 µM
[49]
  TGI: > 100 µM
[50]
  TGI: 79.3 µM
[30]
  TGI: 31.2 µM
[52]
  TGI: 44.3 µM
[31]
  TGI: 37.8 µM
[53]
  TGI: 70.1 µM
[33]
  TGI: 51.3 µM
[58]
  TGI: 49.7 µM
[34]
  TGI: 42.3 µM
[54]
  TGI: 53.2 µM
[35]
  TGI: 67 µM
[36]
  TGI: 37.7 µM
[55]
  TGI: 30.3 µM
[37]
  TGI: 59.1 µM
[38]
  TGI: 46 µM
[56]
  TGI: 70.7 µM
[57]
  TGI: 68.4 µM
[39]
  TGI: 37.5 µM

## CC(=O)OCC1OC(Sc2nc(-c3ccc(Cl)cc3)c(C#N)c(=O)n2C2OC(COC(C)=O)C(OC(C)=O)C(OC(C)=O)C2OC(C)=O)C(OC(C)=O)C(OC(C)=O)C1OC(C)=O (stereo not drawn)
[1]
  GI50: 89.8 µM and 17.7 µM
  TGI: > 100 µM
[2]
  GI50: 2.13 µM
  TGI: 9.15 µM
[5]
  TGI: 8.82 µM
[6]
  GI50: > 100 µM and 17.4 µM
  TGI: > 100 µM
[7]
  TGI: > 100 µM and 20 µM
[40]
  TGI: > 100 µM and 15.4 µM
[9]
  TGI: > 100 µM and 31 µM
[10]
  GI50: > 100 µM and 17.2 µM
  TGI: > 100 µM
[41]
  TGI: > 100 µM
[13]
  TGI: > 100 µM and 19.7 µM
[14]
  TGI: > 100 µM
[43]
  GI50: 27.7 µM and 55.9 µM
  TGI: > 100 µM
[44]
  TGI: > 100 µM
[19]
  TGI: > 100 µM and 34.3 µM
[20]
  GI50: > 100 µM and 10.2 µM
  TGI: > 100 µM
[22]
  TGI: > 100 µM and 11.2 µM
[23]
  TGI: > 100 µM and 33.5 µM
[24]
  TGI: > 100 µM and 18.5 µM
[45]
  TGI: > 100 µM and 21.9 µM
[46]
  TGI: > 100 µM
[25]
  TGI: 99.8 µM
[26]
  TGI: > 100 µM and 25.3 µM
[27]
  TGI: > 100 µM and 12.8 µM
[28]
  TGI: > 100 µM
[48]
  TGI: 12.1 µM
[49]
  GI50: > 100 µM and 10.7 µM
  TGI: > 100 µM and 23.1 µM
[50]
  GI50: > 100 µM and 20.2 µM
  TGI: > 100 µM and 47.8 µM
[30]
  TGI: > 100 µM
[52]
  TGI: > 100 µM and 10.8 µM
[31]
  TGI: > 100 µM and 24.4 µM
[32]
  TGI: > 100 µM and 19.3 µM
[34]
  TGI: > 100 µM and 13.2 µM
[54]
  GI50: 36.6 µM
  TGI: > 100 µM
[35]
  TGI: > 100 µM
[36]
  TGI: > 100 µM and 13.6 µM
[55]
  GI50: 26.9 µM and 8.49 µM
  TGI: > 100 µM
[37]
  TGI: > 100 µM
[38]
  TGI: > 100 µM and 24.8 µM
[57]
  TGI: > 100 µM and 12.1 µM
